PMC6799938, “Determinants of drug entry into the developing brain” (F1000Research, 2019)
Where two headings read alike, the source gives them in different places. Values belong to the compound of their own block, whether it stands above or below them.

Tests used:
[1] = Sprague Dawley, rat, in vivo
[2] = Entry of "passive" markers into brain and CSF
Procedure: (§1) Experimental procedure. In acute drug experiments, a single dose was injected that included traces of [ ^3H]-labelled drug (20µCi adults, 2µCi newborns). In chronic experiments, doses of unlabelled drug were given twice daily (09.00 and 17.00h) for four days before a final injection on the 5 ^th day identical to acute experiments. In passive marker experiments, all dosing was acute and contained only the [ ^3H]- or [ ^14C]-labelled compound (20µCi adults, 2µCi newborns).
(§2) In all experiments involving postnatal animals, injections were intraperitoneal (i.p.). In pregnant animals for fetal drug entry studies, the final injection of the radiolabelled marker was given intravenously (i.v.), as the peritoneal cavity required opening prior to the sampling period to gain access to the fetuses. For passive markers (L-glucose, sucrose and glycerol), fetal animals were individually injected i.p. while still within the uterine horn. All experiments took place between 09.00 and 15.00h. All pregnancy studies were completed with a single treatment group on one day. Postnatal groups were conducted with a single treatment group on one day or with the chronic group completed prior to the acute group.
(§3) Sample collection. Samples were collected 30 minutes after the final injection. This duration was chosen partly to limit any potential metabolism of the drugs and markers used but also to allow enough time for i.p. injected markers to reach the blood stream and, from there, to access the brain parenchyma across brain barriers, as well as to limit the CSF sink effect that could influence drug levels ( [Bito et al., 1966]). Thirty minutes is also within the half-life of these drugs ( [Adedoyin et al., 1987]; [Harrison & Gibaldi, 1976]; Lin & Levy, 1963). The other reason a 30-minute duration was chosen is that in the case of exposed fetal rat pups, it is difficult to maintain them in a reasonable physiological state for long periods due to deterioration of placental perfusion. Therefore, for comparative purposes, all studies were conducted at the same time.
For adult and newborn (P4) experiments, animals were terminally anaesthetized using inhaled isofluorane (IsoFlo 100% w/w, Abbott Laboratories). Blood samples were collected from the right cardiac ventricle, CSF from the cisterna magna (Habgood et al., 1992) and cortical segments of brain tissue dorsal to the ventricle of the frontal/parietal lobes, as previously described ( [Koehn et al., 2019]). Blood and CSF sampling from the P4 animals was terminal and would thus not have affected the physiological state of the animals during the experiment.
Sample preparation. Samples were processed immediately after collection. Blood was centrifuged at 7000rpm for five minutes and the plasma separated. CSF samples were examined microscopically for traces of red blood cells and discarded if contaminated (Habgood et al., 1992). In all experiments, the radioactivity in the injectate was also measured to confirm the uniformity of the injected material. All samples were weighed and transferred into scintillation vials. Soluene350 (0.5ml, PerkinElmer) was added to the brain samples. After being incubated at 36°C overnight to allow the tissue to solubilize, two drops of glacial acetic acid (Sigma) were added to neutralize the strongly alkaline Soluene350. All samples were then mixed with 5ml of scintillation fluid (Emulsifier-safe, PerkinElmer) before being transferred into the liquid scintillation counter (Tri-Carb 4910 TR, PerkinElmer) to count radioactivity disintegrations per minute (DPM) over five minutes each with luminescence correction on. Blank vials containing the same tissues without radioactivity were also counted alongside the samples to establish the level of background counts, which were always subtracted from the radioactivity counts of the corresponding experimental samples.
BrainorCSFtransfer=BrainorCSFDPM/μl/plasmaDPM/μl×100%

[3] = for Brain radioactivity level / CSF radioactivity level / Plasma radioactivity level: mean
Procedure: Animals. Sprague Dawley rats were supplied by the University of Melbourne Biological Research Facility and housed in groups of 2–4 (adult) or full litters per cage (25cm x 35cm x 25cm on Breeders Choice paper bedding, made from 99% recycled paper; it is biodegradable with no added chemicals), on a 12 h light/dark cycle with ad libitum access to food (dry pellets of a fixed formulation diet for laboratory rats and mice fortified with vitamins and minerals to meet the requirements of breeding animals after the diet is autoclaved or irradiated, supplied by Speciality Feeds, Western Australia) and water. Age groups investigated (at treatment completion) were time mated pregnant females at E19 (350-400g body weight), postnatal pups at P4 and non-pregnant female adults (175-230g body weight). E19 was chosen because this is a stage of development when adequate volumes of blood and CSF can be obtained for analysis from fetal rats without pooling ( [Dziegielewska et al., 1981]) and individual pups can be injected intraperitoneally while still inside the uterine horn and kept viable for periods of time. P4 was chosen because its stage of brain development is similar to that of very prematurely born but viable human infants of 22–24 weeks gestation ( [Clancy et al., 2001]). Animal numbers were based on previous experience of such experiments and were the minimum number required to detect a significant difference between groups at P <0.05.
Drug doses. Drug doses were selected based on use in clinical practice ( [Australian Medicines Handbook, 2019]) and adjusted for body weight.
as §1, §2, §3
For adult and newborn (P4) experiments, animals were terminally anaesthetized using inhaled isofluorane (IsoFlo 100% w/w, Abbott Laboratories).

[4] = passive marker, E19, 60-minute, separate experimentation
[5] = passive marker, E19, 30 minutes after i.p. injection
[6] = passive marker, P4, 30 minutes after i.p. injection
[7] = passive marker, adults, 30 minutes after i.p. injection
[8] = E19 fetuses, acute, 30 min - […] after administration
[9] = E19 fetuses, chronic (twice daily over five days), 30 min - […] after final dose
[10] = P4, chronic i.p. (twice daily over five days), 30 min after final dose
[11] = adult, chronic i.p. (twice daily over five days), 30 min after final dose

restriction of transfer by the placenta [1]: about 60%
Structure (SMILES): C[C@H]1O[C@@H](O[C@H]2[C@@H](O)C[C@H](O[C@H]3[C@@H](O)C[C@H](O[C@H]4CC[C@@]5(C)[C@H](CC[C@@H]6[C@@H]5C[C@@H](O)[C@]5(C)[C@@H](C7=CC(=O)OC7)CC[C@]65O)C4)O[C@@H]3C)O[C@@H]2C)C[C@H](O)[C@@H]1O [Digoxin]

CSF concentration ratio [2, 4]: ~100%
brain concentration ratio [2, 4]: approximately 80%
Brain/Plasma Ratio [2, 5]: 46.8%
CSF/Plasma Ratio [2, 5]: 46.8%
Brain/Plasma Ratio [2, 6]: 82.2%
CSF/Plasma Ratio [2, 6]: 95%
Brain/Plasma Ratio [2, 7]: 85.5%
CSF/Plasma Ratio [2, 7]: 103.9%
Fetal/Maternal plasma concentration ratio, range [1]: (68.1 - 134.7) %
Structure (SMILES): OCC(O)CO [Glycerol]

transfer from maternal blood to fetal brain ([3]; E19, acute): 28%
Brain radioactivity level [3, 8]: 39.6 DPM/µg
CSF radioactivity level [3, 8]: 35.3 DPM/µl
Plasma radioactivity level [3, 8]: 57.8 DPM/µl
Brain radioactivity level [3, 9]: 146.1 DPM/µg
CSF radioactivity level [3, 9]: 119.0 DPM/µl
Plasma radioactivity level [3, 9]: 140.5 DPM/µl
Brain radioactivity level ([3]; P4, acute i.p., 30 min): 117.5 DPM/µg
CSF radioactivity level ([3]; P4, acute i.p., 30 min): 96.5 DPM/µl
Plasma radioactivity level ([3]; P4, acute i.p., 30 min): 193.6 DPM/µl
Brain radioactivity level [3, 10]: 84.4 DPM/µg
CSF radioactivity level [3, 10]: 71.0 DPM/µl
Plasma radioactivity level [3, 10]: 166.8 DPM/µl
transfer into maternal brain (brain/maternal blood) ([3]; acute): 30%
Brain radioactivity level ([3]; adult, acute i.p., 30 min): 27.3 DPM/µg
CSF radioactivity level ([3]; adult, acute i.p., 30 min): 25.4 DPM/µl
Plasma radioactivity level ([3]; adult, acute i.p., 30 min): 90.1 DPM/µl
Brain radioactivity level [3, 11]: 17.6 DPM/µg
CSF radioactivity level [3, 11]: 14.9 DPM/µl
Plasma radioactivity level [3, 11]: 83.3 DPM/µl
transfer into maternal brain (brain/maternal blood) ([3]; chronic (five days of twice-daily dosing)): 21%
Structure (SMILES): CC(=O)Nc1ccc(O)cc1 [Paracetamol]

CSF/Plasma Ratio ([2]; rat, in vivo): very low
Brain/Plasma Ratio ([2]; rat, in vivo, 0.5 h): very low
Structure (SMILES): OC[C@H]1O[C@@](CO)(O[C@H]2O[C@H](CO)[C@@H](O)[C@H](O)[C@H]2O)[C@@H](O)[C@@H]1O [sucrose, Sucrose]
